“And” between values parts separate entries of the source, which are not always exact repeats. Identical values can stand only once.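 Test compounds were applied to cells in 96-well plates for 48 hours at 5 doses. At the GI50, growth is halved. TGI: total growth inhibition.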
Experiments:
Test in all cases: NCI-60 cell line screen, 48 h
COLO 205 colon = system: COLO 205 colon
HCC-2998 colon = system: HCC-2998 colon
HS 578T breast = system: HS 578T breast
M14 melanoma = system: M14 melanoma
NCI-H226 lung = system: NCI-H226 lung
NCI/ADR-RES ovarian = system: NCI/ADR-RES ovarian
PC-3 prostate = system: PC-3 prostate
SK-MEL-28 melanoma = system: SK-MEL-28 melanoma
SNB-75 CNS = system: SNB-75 CNS
T-47D breast = system: T-47D breast

| Structure (SMILES) | TGI (COLO 205 colon) [µM] | TGI (HCC-2998 colon) | TGI (HS 578T breast) [µM] | TGI (M14 melanoma) [µM] | TGI (NCI-H226 lung) | TGI (NCI/ADR-RES ovarian) [µM] | TGI (PC-3 prostate) | TGI (SK-MEL-28 melanoma) [µM] | TGI (SNB-75 CNS) [µM] | TGI (T-47D breast) | GI50 (COLO 205 colon) [nM] | GI50 (HCC-2998 colon) | GI50 (HS 578T breast) [nM] | GI50 (M14 melanoma) | GI50 (NCI-H226 lung) [µM] | GI50 (NCI/ADR-RES ovarian) | GI50 (PC-3 prostate) | GI50 (SK-MEL-28 melanoma) | GI50 (SNB-75 CNS) | GI50 (T-47D breast) [nM] |
| --- | --- | --- | --- | --- | --- | --- | --- | --- | --- | --- | --- | --- | --- | --- | --- | --- | --- | --- | --- | --- |
| CC1(CCCC2(C)CCNC2=O)OCCO1 (stereo unspecified) | > 10 | > 10 µM | > 10 | > 10 | > 10 µM | > 10 | > 10 µM | > 10 | > 10 | > 10 µM | – | – | – | – | – | – | – | – | – | – |
| O=c1ccc2nc(-c3ccccc3)nn(-c3ccccc3)c-2c1 | 1.8 | 12.3 µM | 8.47 | 3.27 | 4.21 µM | 48.4 | 5.71 µM | 3.11 | 11.3 | 1.26 µM | 589 | 5130 nM | 2650 | 1670 nM | 2 | 8110 nM | 2140 nM | 1630 nM | 4830 nM | 485 |
| Cc1cc(O)c2c(c1)C[C@@H](O)C1=C2C(=O)c2c(O)ccc(OC3CC(O)C(OC4CC(OC5CCC(OC6CC(O)C(OC7CC(OC8CCC(O)C(C)O8)C(O)C(C)O7)C(C)O6)C(C)O5)C(O)C(C)O4)C(C)O3)c2C1=O (stereo partly specified) | – | – | – | – | 0.461 µM and 3.07 µM | – | 0.56 µM and 1.49 µM and 3.5 µM | – | – | 0.352 µM and 2.54 µM | 539 | 1760 nM and 1450 nM | 1590 | 822 nM and 1280 nM | 1.48 | 3010 nM and 1800 nM | 400 nM and 849 nM | 267 nM and 1440 nM | 1480 nM and 1990 nM | 626 |
| COc1ccc(C(=O)c2cc3c(N)c(C(=O)Nc4cccc(Cl)c4)sc3nc2C)cc1 | > 33.3 | > 33.3 µM | 6.62 | > 33.3 | > 33.3 µM | > 33.3 | > 33.3 µM | > 33.3 | 2.75 | > 33.3 µM | 1670 | 1920 nM | 957 | 1080 nM | 16 | 1490 nM | 1480 nM | 3030 nM | 743 nM | 2520 |
| O=C(Nc1ccc(Cl)c(Cl)c1)Nc1ccc(Cl)c([N+](=O)[O-])c1 | 4.9 | 4.58 µM | 16.1 | 5.04 | 5.54 µM | 6.09 | 3.59 µM | 4.62 | 24.4 | 2.83 µM | 1120 | 1220 nM | 3650 | 1460 nM | 1.3 | 1020 nM | 921 nM | 1300 nM | 4740 nM | 729 |
| CCOC(=O)c1cnc2ccc(Cl)cc2c1NCCCN(C)C | 24.6 | > 100 µM | > 100 | 33 | 92.2 µM | > 100 | > 100 µM | 56.3 | 77.2 | > 100 µM | 10500 | 38400 nM | 29500 | 17800 nM | 19.9 | 25000 nM | 27300 nM | 22900 nM | 684 nM | 41500 |
| NC(=O)C/C=C/CC(N)=O | > 100 | > 100 µM | > 100 | > 100 | > 100 µM | > 100 | > 100 µM | > 100 | > 100 | > 100 µM | – | – | – | – | – | – | – | – | – | – |
| COc1ccc(C(=O)CC2(O)C(=O)Nc3c(Cl)ccc(Cl)c32)cc1 (stereo unspecified) | 5.3 | > 54 µM | > 24.6 | > 22.2 | > 100 µM | 19.6 | > 100 µM | > 100 | > 29.8 | > 100 µM | 954 | 5240 nM | 1660 | 560 nM | 30.6 | 715 nM | 2800 nM | 6220 nM | 1890 nM | 9900 |
| Cc1cc(Cl)n2c(nc3ccccc32)c1C#N | 0.803 | 2.31 µM | 23.4 | 2.04 | 10 µM | 8.74 | 1.6 µM | 6.34 | 8.53 | 2.3 µM | 296 | 727 nM | 1020 | 395 nM | 1.54 | 847 nM | 383 nM | 1400 nM | 1330 nM | 718 |
| Cc1ccc(CCC(=O)Nc2ncc(Cc3cc(Cl)ccc3Cl)s2)o1 | 0.658 | 6.41 µM | 7.2 | 3.97 | – | 1.41 | > 42.8 µM | > 100 | 2.16 | > 100 µM | 194 | 312 nM | 289 | 91 nM | 0.901 | 159 nM | 244 nM | 1540 nM | 206 nM | 1220 |
| Cn1cc(-c2ccc3cc(-c4ccc(CC(=O)Nc5cc(C(C)(C)C)nn5C)cc4)cnc3c2)cn1 | > 100 | > 100 µM | > 100 | > 100 | > 100 µM | > 100 | > 100 µM | > 100 | > 100 | 4.81 µM | 441 | 443 nM | 187 | 144 nM | 0.317 | 355 nM | 360 nM | 410 nM | 72.3 nM | 209 |
| [O-][n+]1onc2c3nn(-c4ccccc4)nc3ccc21 | > 100 | 44.9 µM | > 88.6 | > 100 | > 100 µM | > 100 | > 100 µM | > 100 | > 100 | 32.4 µM | – | – | – | – | – | – | – | – | – | – |
| O=C(Cn1ccnc1[N+](=O)[O-])NCCO | > 100 | > 100 µM | > 100 | > 100 | > 100 µM | > 100 | > 100 µM | > 100 | > 100 | > 100 µM | – | – | – | – | – | – | – | – | – | – |
| CC/C=C/[C@@H]1C=C[C@@H]2CCC[C@H]2[C@@H]1CC[C@H](O)[C@H](C)N | 2.64 | 2.74 µM | 3.15 | 2.98 | 27.6 µM | 4.4 | 12.5 µM | 3.01 | 5.23 | 3.3 µM | 1360 | 1420 nM | 1430 | 1600 nM | 11.9 | 1970 nM | 2910 nM | 1660 nM | 538 nM | 1520 |
| FC(F)(F)c1ccc2nc(-c3nc(-c4ccccc4)n4ccccc34)[nH]c2c1 | > 100 | 22.4 µM | 33.6 | > 100 | 32.9 µM | 38.5 | > 100 µM | 31.6 | 3.94 | 16.9 µM | 4880 | 5980 nM | 3650 | 17700 nM | 10.9 | 3710 nM | 4110 nM | 9220 nM | 1680 nM | 1710 |
| CC(C)(O)Cn1c(=O)c(Oc2ccc(F)cc2F)cc2cnc(NC3CCOCC3)nc21 | > 25 | > 25 µM | > 25 | > 25 | > 25 µM | > 25 | > 25 µM | > 25 | > 25 | > 25 µM | > 25000 | > 25000 nM | > 25000 | > 25000 nM | > 25 | > 25000 nM | > 25000 nM | > 25000 nM | > 22300 nM | > 25000 |
| C=C1C(=O)O[C@@H]2[C@@H]3O[C@@](C)(CC/C=C(\C)CCC[C@@H]2C)[C@H](O)C[C@@H]13 | 4.21 | 18 µM | > 100 | 3.48 | 26.3 µM | 4.53 | 18.3 µM | 12.2 | 13.4 | 4.7 µM | 2060 | – | 11400 | 1720 nM | 12.5 | 1670 nM | 4310 nM | 3130 nM | 2580 nM | 2020 |
| O=C(Nc1nc2ncn(CCOC(=O)c3ccccc3)c2c(=O)[nH]1)c1ccccc1 | 23.6 | > 100 µM | 51.7 | > 100 | > 100 µM | > 100 | > 100 µM | > 100 | > 71.7 | > 100 µM | – | – | – | – | – | – | – | – | – | – |
| COc1cc(-c2cc(-c3ccc(N(C)C)cc3)nc(N3CCC(O)CC3)c2C#N)cc(OC)c1OC | 3.42 | 6.48 µM | > 100 | 1.3 | – | > 19.8 | > 100 µM | 3.23 | 10.1 | 4.07 µM | 532 | 540 nM | 5660 | 282 nM | 0.717 | 350 nM | 895 nM | 992 nM | 457 nM | 458 |
| CCc1cc(C(N)=O)ccc1-n1nc(C(C)C)c2c(-n3cnc(-c4cnn(C)c4)c3)ccnc21 | – | > 100 µM | > 100 | > 100 | > 100 µM | > 100 | > 100 µM | > 100 | > 100 | > 100 µM | 387 | 3390 nM | 12000 | 1220 nM | 3.68 | 32800 nM | 3610 nM | 1220 nM | 4110 nM | 1830 |
| CC(C)Oc1cc(OCC(=O)O)cc(C(=O)N(CCC(N)=O)C(=O)Nc2ccc(C(=O)O)cc2OC(C)C)c1 | > 100 | > 100 µM | > 100 | > 100 | > 100 µM | > 100 | > 100 µM | > 100 | > 100 | > 100 µM | > 100000 | > 100000 nM | > 100000 | > 100000 nM | > 100 | > 100000 nM | > 100000 nM | > 100000 nM | > 100000 nM | > 100000 |
| COc1ccc(/C=C2/SC(=Nc3c(C)nn(-c4ccccc4)c3N)NC2=O)cc1 | 19.2 | 20.6 µM | 6.57 | 22.6 | 45.3 µM | 39.4 | 77.7 µM | 50.5 | 26.7 | 45.3 µM | 3840 | 6870 nM | 2170 | 3720 nM | 8.28 | 4360 nM | 4350 nM | 11600 nM | 3430 nM | 3960 |
| C1=C[C@@H]2c3ccc4cnccc4c3NC[C@@H]2C1 | > 100 | > 100 µM | > 100 | > 100 | > 100 µM | > 100 | > 100 µM | > 100 | > 100 | > 100 µM | – | – | – | – | – | – | – | – | – | – |
| CCN1CCC(C(=O)Nc2n[nH]c3nnc(-c4cccc(F)c4F)cc23)CC1 | 9.17 | > 25 µM | > 23.1 | > 25 | 11.9 µM | > 25 | > 25 µM | > 18.4 | > 19.3 | > 20.1 µM | 4610 | 16000 nM | 3680 | 11400 nM | 3.41 | > 25000 nM | 10100 nM | 8350 nM | 821 nM | 4420 |
| CCCCc1ccc2nc(NC(=O)OC)[nH]c2c1 | 0.37 | 3.4 µM | 0.649 | 0.69 | 3.32 µM | 0.121 | > 82.7 µM | 35.3 | 1.18 | > 100 µM | 38 | 96.6 nM | 26.6 | 35.1 nM | 0.0429 | 31.1 nM | 41.3 nM | 87 nM | 25.7 nM | 39.2 |
| CCc1nc(N)nc(N)c1-c1ccc(Cl)cc1 | > 100 | > 100 µM and 25.7 µM | > 100 | > 100 | > 100 µM | > 100 | > 100 µM | > 100 | > 100 | > 100 µM | – | – | > 100000 | – | 47.9 | 5930 nM | 5210 nM | > 100000 nM | > 100000 nM | 45500 |

Reference: PubChem BioAssay (NCI)
